Test results published in the NIST ThermoML archive (doi:10.1016/j.tca.2006.04.016).

Test: xn = mol fraction of the nth substance listed
Details: 101 kPa, Liquid, Vibrating tube method

CN(C)CCCN [N,N-dimethyl-1,3-propanediamine] + O
mass density [kg/m3]
Details | 318.15 K | 323.15 K | 328.15 K | 333.15 K | 338.15 K | 343.15 K | 348.15 K | 353.15 K
x2 = 0 | – | 790.41 | 785.91 | 781.39 | 776.85 | 772.29 | 767.7 | 763.1
x2 = 0.0403 | – | 793.5 | 789 | 784.47 | 779.92 | 775.35 | 770.76 | 766.14
x2 = 0.0811 | – | 796.65 | 792.14 | 787.61 | 783.06 | 778.48 | 773.88 | 769.25
x2 = 0.1198 | – | 799.82 | 795.31 | 790.78 | 786.22 | 781.64 | 777.03 | 772.39
x2 = 0.16 | – | 803.3 | 798.79 | 794.25 | 789.69 | 785.1 | 780.49 | 775.84
x2 = 0.1996 | – | 806.9 | 802.39 | 797.86 | 793.3 | 788.71 | 784.09 | 779.43
x2 = 0.2498 | – | 811.82 | 807.31 | 802.78 | 798.22 | 793.62 | 788.99 | 784.32
x2 = 0.2998 | – | 817.12 | 812.62 | 808.09 | 803.53 | 798.93 | 794.3 | 789.63
x2 = 0.3499 | – | 822.81 | 818.31 | 813.78 | 809.21 | 804.61 | 799.97 | 795.29
x2 = 0.3997 | – | 829.08 | 824.59 | 820.06 | 815.49 | 810.89 | 806.24 | 801.55
x2 = 0.4501 | – | 836.03 | 831.54 | 827.01 | 822.44 | 817.83 | 813.18 | 808.48
x2 = 0.4998 | – | 843.68 | 839.19 | 834.65 | 830.08 | 825.45 | 820.79 | 816.07
x2 = 0.5501 | – | 852.33 | 847.84 | 843.3 | 838.71 | 834.08 | 829.41 | 824.69
x2 = 0.5999 | 866.35 | 861.89 | 857.39 | 852.84 | 848.24 | 843.6 | 838.92 | 834.17
x2 = 0.6498 | 877.08 | 872.61 | 868.1 | 863.55 | 858.94 | 854.29 | 849.59 | 844.83
x2 = 0.7 | 889.3 | 884.83 | 880.31 | 875.74 | 871.13 | 866.47 | 861.76 | 857
x2 = 0.7499 | 902.82 | 898.36 | 893.85 | 889.3 | 884.69 | 880.03 | 875.32 | 870.56
x2 = 0.8 | 917.71 | 913.29 | 908.82 | 904.3 | 899.72 | 895.11 | 890.44 | 885.71
x2 = 0.84 | 930.55 | 926.21 | 921.82 | 917.39 | 912.9 | 908.37 | 903.78 | 899.14
x2 = 0.8799 | 943.86 | 939.69 | 935.48 | 931.22 | 926.91 | 922.56 | 918.14 | 913.67
x2 = 0.9 | 950.58 | 946.58 | 942.52 | 938.42 | 934.27 | 930.05 | 925.79 | 921.45
x2 = 0.92 | 957.27 | 953.52 | 949.71 | 945.84 | 941.89 | 937.89 | 933.81 | 929.67
x2 = 0.94 | 963.99 | 960.6 | 957.12 | 953.56 | 949.91 | 946.17 | 942.35 | 938.45
x2 = 0.9597 | 970.89 | 967.94 | 964.87 | 961.68 | 958.38 | 954.98 | 951.46 | 947.86
x2 = 0.975 | 976.98 | 974.39 | 971.65 | 968.78 | 965.78 | 962.66 | 959.41 | 956.07
x2 = 0.99 | 984.22 | 981.91 | 979.45 | 976.83 | 974.07 | 971.18 | 968.15 | 965.01
